Results published in patent US8129037B2, “Phenanthrene derivative” (priority 2005, dated 2012).

Assay: Solubility comparison in common organic solvents
Type: physicochemical
Conditions: qualitative
Excerpt: In contrast, phenanthrenes which are structurally analogous but unsubstituted in the 9- and 10-position have distinctly poorer solubility in organic solvents. This leads to considerable problems in the purification, since substantially larger apparatus and distinctly larger amounts of solvent are required for this purpose.

SMILES: Cc1ccc(-c2ccc3c(c2)c(C)c(C)c2cc(-c4ccc(C)c5ccccc45)ccc23)c2ccccc12 [Example P1]
- Solubility in common organic solvents: moderate to good
